Experimental data: US4877727A, “Substrate for determining leucine aminopeptidase or gamma-glutamyltranspeptase activity” (Kyowa Medex Co., Ltd., priority 1984, dated 1989)
Converted amounts (≈) assume the structure as drawn. Blank lines part the entries; values can stand above or below the compound they belong to.

Legend:
[1] = system: leucine aminopeptidase (LAP); test: LAP determination in serum, absorption change per minute (Example 1); format: biochemical
Description: 3 ml of the reagent solution was incubated at 37° C. for ten minutes. To the solution was added 0.05 ml of a serum sample and the mixture was immediately stirred and the change in absorption of the solution at 745 nm was measured for one minute.
LAP activity in the sample can be calculated using the following equation: [formula] ΔE means the amount of absorption change per minute.
The same procedures as described above were repeated except that the following materials were used. […]

Solubility of substrate = format: physicochemical; details: read-out: S: Solubility
Stability of pigment = format: physicochemical
[2] = Maximum wavelength of formed pigment; format: physicochemical
Description: 50 μl of 1 mM each free compound was added to 3 ml of 0.1M phosphate buffer containing 0.5 mg/ml EMSE and 1 U/ml laccase and the mixture was incubated at 37° C. for 5 minutes. The absorption of the reaction solution at λmax was measured. As a control, 5-aminosalicylic acid was used and the reaction of the compound with 2,6-xylenol was carried out in the presence of metaperiodate under strong alkaline conditions.

[3] = system: leucine aminopeptidase (LAP); test: LAP determination in serum, end-point colour reactions (Example 2); format: biochemical
Description: The reagent solution wherein laccase was excluded from the reagent solution of Example 1 was used.
3 ml of the reagent solution was incubated at 37° C. for 10 minutes and to the mixture was added 0.05 ml of a serum sample. The mixture was immediately stirred and incubated at 37° C. for 10 minutes. After ten minutes passed,
(a) 0.03 ml of 10 mg/ml α-naphthol methanol solution and 0.1 ml of 1N-NaOH solution containing 50 mg/ml sodium salt of meta-periodate were added to the solution. The mixture was incubated at 37° C. for 10 minutes and the absorption of the reaction solution at 600 nm was measured.
(b) 1 ml of 10 mg/ml p-N,N-dimethylamino cinnamaldehyde ethanol solution and 1 ml of 0.4N-HCl solution were added to the solution and the mixture was incubated at 37° C. for 10 minutes. The absorption of the reaction solution at 570 nm was measured.
(c) 0.5 ml of 1N-HCl and 0.5 ml of 1 mg/ml sodium nitrite were added to the solution and the mixture was incubated at 37° C. for 10 minutes. Then 0.1 ml of 1 mg/ml 3,5-xylenol ethanol solution was added thereto and the absorption of the reaction solution at 650 nm was measured.

[4] = target: T1, γ-glutamyltranspeptidase (γ-GTP) (Homo sapiens, UniProt P19440); test: γ-GTP determination in serum (Example 3); format: biochemical; details: found with the compound as substrate; standard serum 235 mU/ml; 37° C., 5 minutes; wavelength of Table 2
T1 construct: from tissue; host or cells: serum
T1 sequence (P19440 1-380 limits assumed): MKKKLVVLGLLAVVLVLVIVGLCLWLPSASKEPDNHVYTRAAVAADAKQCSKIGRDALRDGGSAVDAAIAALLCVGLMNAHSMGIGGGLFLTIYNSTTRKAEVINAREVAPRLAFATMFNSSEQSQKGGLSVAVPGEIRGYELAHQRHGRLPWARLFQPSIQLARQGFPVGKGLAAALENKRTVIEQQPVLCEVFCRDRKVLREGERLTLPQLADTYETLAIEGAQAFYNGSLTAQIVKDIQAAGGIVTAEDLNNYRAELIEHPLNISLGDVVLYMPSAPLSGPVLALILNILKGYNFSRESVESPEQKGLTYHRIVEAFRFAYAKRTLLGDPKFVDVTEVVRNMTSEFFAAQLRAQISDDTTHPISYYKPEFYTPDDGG
T1 sequence (P19440 381-569 limits assumed): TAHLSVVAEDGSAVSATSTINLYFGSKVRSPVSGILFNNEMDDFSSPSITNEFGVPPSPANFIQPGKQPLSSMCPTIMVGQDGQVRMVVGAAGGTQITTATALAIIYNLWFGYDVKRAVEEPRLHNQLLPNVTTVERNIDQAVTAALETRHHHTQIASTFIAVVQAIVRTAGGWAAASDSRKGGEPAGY
Description: In this example, 500 mg of compound Nos. 1, 3, 5, 7 and 9 each and 500 mg of glycylglycine were dissolved in 100 ml (pH=7.7) and 0.1M phosphate buffer. The resultant solutions were designated A-1, A-3, A-5, A-7 and A-9, respectively. 50 mg of 3-{N-(m-tolyl)-N-ethyl}amino-2-hydroxypropane sulfonic acid was dissolved in 100 ml of phosphate buffer solution to obtain solution B. 50 mg/ml sodium meta-periodate containing 1N-HCl solution was prepared as solution C.
6 ml of solution A-1, A-3, A-5, A-7 or A-9 was equally poured to 3 test tubes. The samples were incubated at 37° C. and to the solution was added […] of (a) serum sample (b) standard serum or (c) water. The mixtures were stirred and heated for 5 minutes. After 5 minutes had passed, 1 ml of solution B and 1 ml of solution C were added to each of the mixtures and the mixtures were incubated for 10 minutes after stirring. As the standard serum, a serum having 235 mU/ml of γ-GTP was used.
The γ-GTP activity of the serum sample can be calculated by the following equation. [formula]

[5] = Serum(1), 37° C., 745 nm Compound No. 2, 635 nm (a), 565 nm (b), 675 nm (c)

amount of absorption change per minute ([1]; Serum (2), same wavelengths): 0.0054
amount of absorption change per minute ([1]; Serum (3), same wavelengths): 0.0090
amount of absorption change per minute ([1]; Serum (4), same wavelengths): 0.0089
amount of absorption change per minute ([1]; Serum (5), same wavelengths): 0.0071
amount of absorption change per minute ([1]; Serum (6), same wavelengths): 0.0071
amount of absorption change per minute ([1]; Serum (7), same wavelengths): 0.0074
amount of absorption change per minute ([1]; Serum (8), same wavelengths): 0.0086
amount of absorption change per minute ([1]; Serum (9), same wavelengths): 0.0082
amount of absorption change per minute ([1]; Serum (10), same wavelengths): 0.0079
amount of absorption change per minute [1, 5]: 0.0071
SMILES: CC(C)C[C@H](N)C(=O)Nc1ccc([N+](=O)[O-])cc1 [(b), L-leucil-p-nitroanilide]

amount of absorption change per minute ([1]; Serum (2), same wavelengths): 0.0095
amount of absorption change per minute ([1]; Serum (3), same wavelengths): 0.0150
amount of absorption change per minute ([1]; Serum (4), same wavelengths): 0.0145
amount of absorption change per minute ([1]; Serum (5), same wavelengths): 0.0116
amount of absorption change per minute ([1]; Serum (6), same wavelengths): 0.0126
amount of absorption change per minute ([1]; Serum (7), same wavelengths): 0.0113
amount of absorption change per minute ([1]; Serum (8), same wavelengths): 0.0150
amount of absorption change per minute ([1]; Serum (9), same wavelengths): 0.0138
amount of absorption change per minute ([1]; Serum (10), same wavelengths): 0.0133
amount of absorption change per minute [1, 5]: 0.0158
SMILES: CCN(CC)c1ccc(NC(=O)[C@@H](N)CC(C)C)cc1 [(c), L-leucil-p-N,N-- diethylaminoanilide]

solubility (Solubility of substrate): < 20 mg/mL
ST: Stability of pigment (Stability of pigment): 90%
λmax: Maximum wavelength [2]: 615 nm
SMILES: CC(C)C[C@H](N)C(=O)Nc1ccc(O)c(C(=O)O)c1 [Control, reference compound]

solubility (Solubility of substrate): 65 mg/mL (≈ 182 mM)
ST: Stability of pigment (Stability of pigment): > 96%
λmax: Maximum wavelength [2]: 750 nm
SMILES: CC(C)C[C@H](N)C(=O)Nc1ccc(N(C)CCCS(=O)(=O)O)cc1 [compound 4]

Continued, compound first:

SMILES: CC(C)C[C@H](N)C(=O)Nc1ccc(O)c(C(=O)O)c1 [(a), L-leucil-3-carboxy-4-hydroxyanilide]
amount of absorption change per minute ([1]; Serum (2), same wavelengths): 0.0127
amount of absorption change per minute ([1]; Serum (3), same wavelengths): 0.0198
amount of absorption change per minute ([1]; Serum (4), same wavelengths): 0.0203
amount of absorption change per minute ([1]; Serum (5), same wavelengths): 0.0148
amount of absorption change per minute ([1]; Serum (6), same wavelengths): 0.0158
amount of absorption change per minute ([1]; Serum (7), same wavelengths): 0.0153
amount of absorption change per minute ([1]; Serum (8), same wavelengths): 0.0191
amount of absorption change per minute ([1]; Serum (9), same wavelengths): 0.0190
amount of absorption change per minute ([1]; Serum (10), same wavelengths): 0.0184
amount of absorption change per minute [1, 5]: 0.0188

SMILES: CC(C)C[C@H](N)C(=O)Nc1ccc(N(CCCS(=O)(=O)O)CCCS(=O)(=O)O)cc1 [Compound No. 2, L-leucyl-p-N,N-disulfopropyl aminoanilide]
solubility (Solubility of substrate): 130 mg/mL (≈ 279 mM)
ST: Stability of pigment (Stability of pigment): > 98%
λmax: Maximum wavelength [2]: 745 nm
amount of absorption change per minute ([1]; Serum (2), same wavelengths): 0.0395
amount of absorption change per minute ([1]; Serum (3), same wavelengths): 0.0543
amount of absorption change per minute ([1]; Serum (4), same wavelengths): 0.0541
amount of absorption change per minute ([1]; Serum (5), same wavelengths): 0.0382
amount of absorption change per minute ([1]; Serum (6), same wavelengths): 0.0437
amount of absorption change per minute ([1]; Serum (7), same wavelengths): 0.0400
amount of absorption change per minute ([1]; Serum (8), same wavelengths): 0.0532
amount of absorption change per minute ([1]; Serum (9), same wavelengths): 0.0537
amount of absorption change per minute ([1]; Serum (10), same wavelengths): 0.0476
amount of absorption change per minute [1, 5]: 0.0454
Ratio of sensitivity ([3]; Example 1 method (EMSE + laccase, 745 nm), reference): 100
absorption of the reaction solution ([3]; method (a) α-naphthol + meta-periodate/NaOH, 600 nm, Serum 1): 0.331
absorption of the reaction solution ([3]; method (a), 600 nm, Serum 2): 0.291
absorption of the reaction solution ([3]; method (a), 600 nm, Serum 3): 0.389
absorption of the reaction solution ([3]; method (a), 600 nm, Serum 4): 0.395
absorption of the reaction solution ([3]; method (a), 600 nm, Serum 5): 0.277
absorption of the reaction solution ([3]; method (a), 600 nm, Serum 6): 0.322
absorption of the reaction solution ([3]; method (a), 600 nm, Serum 7): 0.291
absorption of the reaction solution ([3]; method (a), 600 nm, Serum 8): 0.386
absorption of the reaction solution ([3]; method (a), 600 nm, Serum 9): 0.392
absorption of the reaction solution ([3]; method (a), 600 nm, Serum 10): 0.346
Ratio of sensitivity ([3]; method (a), relative to Example 1 = 100): 73
absorption of the reaction solution ([3]; method (b) p-N,N-dimethylamino cinnamaldehyde/HCl, 570 nm, Serum 1): 0.386
absorption of the reaction solution ([3]; method (b), 570 nm, Serum 2): 0.336
absorption of the reaction solution ([3]; method (b), 570 nm, Serum 3): 0.466
absorption of the reaction solution ([3]; method (b), 570 nm, Serum 4): 0.460
absorption of the reaction solution ([3]; method (b), 570 nm, Serum 5): 0.320
absorption of the reaction solution ([3]; method (b), 570 nm, Serum 6): 0.372
absorption of the reaction solution ([3]; method (b), 570 nm, Serum 7): 0.333
absorption of the reaction solution ([3]; method (b), 570 nm, Serum 8): 0.453
absorption of the reaction solution ([3]; method (b), 570 nm, Serum 9): 0.460
absorption of the reaction solution ([3]; method (b), 570 nm, Serum 10): 0.405
Ratio of sensitivity ([3]; method (b), relative to Example 1 = 100): 85
absorption of the reaction solution ([3]; method (c) sodium nitrite/HCl then 3,5-xylenol, 650 nm, Serum 1): 0.277
absorption of the reaction solution ([3]; method (c), 650 nm, Serum 2): 0.241
absorption of the reaction solution ([3]; method (c), 650 nm, Serum 3): 0.330
absorption of the reaction solution ([3]; method (c), 650 nm, Serum 4): 0.325
absorption of the reaction solution ([3]; method (c), 650 nm, Serum 5): 0.230
absorption of the reaction solution ([3]; method (c), 650 nm, Serum 6): 0.270
absorption of the reaction solution ([3]; method (c), 650 nm, Serum 7): 0.244
absorption of the reaction solution ([3]; method (c), 650 nm, Serum 8): 0.325
absorption of the reaction solution ([3]; method (c), 650 nm, Serum 9): 0.331
absorption of the reaction solution ([3]; method (c), 650 nm, Serum 10): 0.292
Ratio of sensitivity ([3]; method (c), relative to Example 1 = 100): 61

SMILES: N[C@@H](CCC(=O)Nc1ccc(N(CCCS(=O)(=O)O)CCCS(=O)(=O)O)cc1)C(=O)O [compound 1]
solubility (Solubility of substrate): > 200 mg/mL
ST: Stability of pigment (Stability of pigment): > 98%
λmax: Maximum wavelength [2]: 745 nm
γ-GTP activity of the serum sample [4]: 231 mU/ml

SMILES: CN(CCCS(=O)(=O)O)c1ccc(NC(=O)CC[C@H](N)C(=O)O)cc1 [compound 3]
solubility (Solubility of substrate): 80 mg/mL (≈ 214 mM)
ST: Stability of pigment (Stability of pigment): > 96%
λmax: Maximum wavelength [2]: 750 nm
γ-GTP activity of the serum sample [4]: 228 mU/ml
